Laboratory results reported in US7250442B2, “Dihydroindol-2-one derivatives as steroid hormone nuclear receptor modulators” (Eli Lilly and Company, priority 2003, dated 2007).

The compounds below were run against T1, glucocorticoid receptor (Homo sapiens, UniProt P04150) (assay: Glucocorticoid Receptor Binding Assay ([3H]-dexamethasone displacement, A549 cell extract)). Details: A549 human lung epithelial cell extract, 1.86 nM [3H]-dexamethasone; read-out: GR Ki.
T1 construct: host or cells: A549 human lung epithelial cells (sonicated cell extract)
T1 sequence (P04150 1-777): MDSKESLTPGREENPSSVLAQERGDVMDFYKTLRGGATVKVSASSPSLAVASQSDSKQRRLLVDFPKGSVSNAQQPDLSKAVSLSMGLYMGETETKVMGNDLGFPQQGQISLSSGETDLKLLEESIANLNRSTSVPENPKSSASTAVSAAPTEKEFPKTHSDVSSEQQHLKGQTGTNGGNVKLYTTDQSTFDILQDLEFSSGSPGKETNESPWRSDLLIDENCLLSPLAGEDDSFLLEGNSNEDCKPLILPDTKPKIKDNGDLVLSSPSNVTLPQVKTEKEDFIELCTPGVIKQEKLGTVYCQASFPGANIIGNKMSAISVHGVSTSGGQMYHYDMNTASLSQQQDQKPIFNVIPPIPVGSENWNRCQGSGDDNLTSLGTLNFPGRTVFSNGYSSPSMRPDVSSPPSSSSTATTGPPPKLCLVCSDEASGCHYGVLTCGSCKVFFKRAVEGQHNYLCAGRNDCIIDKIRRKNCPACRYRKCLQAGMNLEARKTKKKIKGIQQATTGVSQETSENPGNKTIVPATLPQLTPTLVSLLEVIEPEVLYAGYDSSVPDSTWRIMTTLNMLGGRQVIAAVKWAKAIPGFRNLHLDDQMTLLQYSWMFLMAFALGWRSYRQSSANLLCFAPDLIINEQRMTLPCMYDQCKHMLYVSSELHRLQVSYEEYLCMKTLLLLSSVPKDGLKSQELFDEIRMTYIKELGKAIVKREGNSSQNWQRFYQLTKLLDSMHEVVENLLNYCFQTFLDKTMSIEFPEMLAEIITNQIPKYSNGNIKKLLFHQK
Procedure: Glucocorticoid Receptor Binding Assay:
A549 human lung epithelial cells (ATCC) are grown at a scale where gram quantity cell pellets are obtained. Harvested cell pellets are washed twice in cold phosphate buffered saline, centrifuged, and resuspended in cold assay binding buffer. The assay binding buffer consists of 10% glycerol, 50 mM Tris-HCl (pH7.2), 75 mM sodium chloride, 1.5 mM magnesium chloride, 1.5 mM EDTA, and 10 mM sodium molybdate. Cell suspensions were lysed via sonication, centrifuged, and the “extract” supernatant is snap frozen and stored at −80C. until needed.
GR binding assays are performed in a final volume of 140 ul containing 50-200 ug of A549 cell extract and 1.86 nM [^3H]-dexamethasone (Amersham) plus varying concentrations of test compound or vehicle. Briefly, assays are prepared at RT in 96-well Fisher 3356 plates, each well containing 100 ul of A549 cell extract, 20 ul of [^3H]-dexamethasone, and 20 ul of test compound/vehicle. Incubations are carried out at 4 degrees celsius for 16 hours. After incubation, 70 ul of 3× dextran-coated charcoal solution is added to each reaction, mixed, and incubated for 8 minutes at RT. 3×-dextran-coated charcoal solution consists of 250 ml assay binding buffer, 3.75 g Norit A charcoal (Sigma), and 1.25 g dextran T-70 (Amersham). Charcoal/unbound radioligand complexes are removed by centrifugation of the plate and 140 ul of supernatant from each well is transferred to another 96 well Optiplate (Packard Instruments). 200 ul of Microscint-20 scinillant (Packard Instruments) is added to each well and amount of receptor bound radioligand is determined using Packard Instruments TopCount instrument.
IC50 values, defined as the concentration of test compound required to decrease [^3H]-dexamethasone binding by 50%, are then determined. Ki values for each respective test compound can then be calculated by application of the Cheng-Prusoff equation as described in Cheng et al., Relationship Between The Inhibition Constant (Ki) and The Concentration of Inhibitor Which Causes 50% Inhibition (IC50) of an Enzymatic Reaction, Biochem. Pharmacol., 22: 3099-31088; (1973).

Row | Compound | Ki [µM]
1 | CCc1nc(CN2C(=O)C(c3cc(C)c(O)c(C)c3)(c3cc(C)c(O)c(C)c3)c3ccccc32)cs1 [Example 90, 1-(2-Ethyl-thiazol-4-ylmethyl)-3,3-bis-(4-hydroxy-3,5-dimethyl-phenyl)-1,3-dihydro-indol-2-one] | ≤ 1
2 | Cc1cc(C2(c3cc(C)c(O)c(C)c3)C(=O)N(Cc3csc(-c4ccccc4)n3)c3ccccc32)cc(C)c1O [Example 91, 3,3-Bis-(4-hydroxy-3,5-dimethyl-phenyl)-1-(2-phenyl-thiazol-4-ylmethyl)-1,3-dihydro-indol-2-one] | ≤ 10
3 | COc1ccc(-c2nc(CN3C(=O)C(c4cc(C)c(O)c(C)c4)(c4cc(C)c(O)c(C)c4)c4ccccc43)cs2)cc1 [Example 94, 3,3-Bis-(4-hydroxy-3,5-dimethyl-phenyl)-1-[2-(4-methoxy-phenyl)-thiazol-4-ylmethyl]-1,3-dihydro-indol-2-one] | ≤ 10
4 | COc1ccc(-c2nc(CN3C(=O)C(c4cc(C)c(O)c(C)c4)(c4cc(C)c(O)c(C)c4)c4cc(C)ccc43)cs2)cc1 [Example 95, 3,3-Bis-(4-hydroxy-3,5-dimethyl-phenyl)-1-[2-(4-methoxy-phenyl)-thiazol-4-ylmethyl]-5-methyl-1,3-dihydro-indol-2-one] | ≤ 1
5 | COc1ccc(-c2nc(CN3C(=O)C(c4cc(C)c(O)c(C)c4)(c4cc(C)c(O)c(C)c4)c4ccccc43)no2)cc1 [Example 99, 3,3-Bis-(4-hydroxy-3,5-dimethyl-phenyl)-1-[5-(4-methoxy-phenyl)-[1,2,4]oxadiazol-3-ylmethyl]-1,3-dihydro-indol-2-one] | ≤ 1
6 | Cc1cc(C2(c3cc(C)c(O)c(C)c3)C(=O)N(Cc3ccncc3)c3ccccc32)cc(C)c1O [Example 111, 3,3-Bis-(4-hydroxy-3,5-dimethyl-phenyl)-1-pyridin-4-ylmethyl-1,3-dihydro-indol-2-one] | ≤ 0.5
7 | Cc1cc(C2(c3cc(C)c(O)c(C)c3)C(=O)N(Cc3c(Cl)cccc3Cl)c3ccccc32)cc(C)c1O [Example 113, 1-(2,6-Dichloro-benzyl)-3,3-bis-(4-hydroxy-3,5-dimethyl-phenyl)-1,3-dihydro-indol-2-one] | ≤ 0.5
8 | Cc1cc(C2(c3cc(C)c(O)c(C)c3)C(=O)N(Cc3c(F)cccc3F)c3ccccc32)cc(C)c1O [Example 115, 1-(2,6-Difluoro-benzyl)-3,3-bis-(4-hydroxy-3,5-dimethyl-phenyl)-1,3-dihydro-indol-2-one] | ≤ 0.5
9 | Cc1cc(C2(c3cc(C)c(O)c(C)c3)C(=O)N(Cc3ccccc3N)c3ccccc32)cc(C)c1O [Example 119, 1-(2-Amino-benzyl)-3,3-bis-(4-hydroxy-3,5-dimethyl-phenyl)-1,3-dihydro-indol-2-one] | ≤ 0.5
10 | Cc1ccc(N2C(=O)C(c3cc(C)c(O)c(C)c3)(c3cc(C)c(O)c(C)c3)c3ccccc32)cc1 [Example 125, 3,3-Bis-(4-hydroxy-3,5-dimethyl-phenyl)-1-p-tolyl-1,3-dihydro-indol-2-one] | ≤ 0.5

Second part, the compound after the results:

Row | Ki [µM] | Compound
11 | ≤ 0.5 | Cc1cc(C2(c3cc(C)c(O)c(C)c3)C(=O)N(Cc3ccccc3OC(F)F)c3ccccc32)cc(C)c1O [Example 79, 1-(2-Difluoromethoxy-benzyl)-3,3-bis-(4-hydroxy-3,5-dimethyl-phenyl)-1,3-dihydro-indol-2-one]
12 | ≤ 0.5 | CCOCCN1C(=O)C(c2cc(C)c(O)c(C)c2)(c2cc(C)c(O)c(C)c2)c2ccccc21 [Example 80, 1-(2-Ethoxy-ethyl)-3,3-bis-(4-hydroxy-3,5-dimethyl-phenyl)-1,3-dihydro-indol-2-one]
13 | ≤ 0.5 | Cc1cc(C2(c3cc(C)c(O)c(C)c3)C(=O)N(Cc3ccc(Cl)cc3F)c3ccccc32)cc(C)c1O [Example 83, 1-(4-Chloro-2-fluoro-benzyl)-3,3-bis-(4-hydroxy-3,5-dimethyl-phenyl)-1,3-dihydro-indol-2-one]
14 | ≤ 0.5 | Cc1cc(C2(c3cc(C)c(O)c(C)c3)C(=O)N(Cc3ccc(-c4csnn4)cc3)c3ccccc32)cc(C)c1O [Example 84, 3,3-Bis-(4-hydroxy-3,5-dimethyl-phenyl)-1-(4-[1,2,3]thiadiazol-4-yl-benzyl)-1,3-dihydro-indol-2-one]
15 | ≤ 0.5 | Cc1cc(C2(c3cc(C)c(O)c(C)c3)C(=O)N(Cc3cccc([N+](=O)[O-])c3)c3ccccc32)cc(C)c1O [Example 85, 3,3-Bis-(4-hydroxy-3,5-dimethyl-phenyl)-1-(3-nitro-benzyl)-1,3-dihydro-indol-2-one]
16 | ≤ 0.5 | Cc1cc(C2(c3cc(C)c(O)c(C)c3)C(=O)N(Cc3noc(C4CCC4)n3)c3ccccc32)cc(C)c1O [Example 86, 1-(5-Cyclobutyl-[1,2,4]oxadiazol-3-ylmethyl)-3,3-bis-(4-hydroxy-3,5-dimethyl-phenyl)-1,3-dihydro-indol-2-one]
17 | ≤ 0.5 | Cc1cc(C2(c3cc(C)c(O)c(C)c3)C(=O)N(Cc3noc(-c4ccco4)n3)c3ccccc32)cc(C)c1O [Example 87, 1-(5-Furan-2-yl-[1,2,4]oxadiazol-3-ylmethyl)-3,3-bis-(4-hydroxy-3,5-dimethyl-phenyl)-1,3-dihydro-indol-2-one]
18 | ≤ 0.5 | Cc1ccc2c(c1)C(c1cc(C)c(O)c(C)c1)(c1cc(C)c(O)c(C)c1)C(=O)N2Cc1csc(-c2ccccc2)n1 [Example 92, 3,3-Bis-(4-hydroxy-3,5-dimethyl-phenyl)-5-methyl-1-(2-phenyl-thiazol-4-ylmethyl)-1,3-dihydro-indol-2-one]
19 | ≤ 0.5 | Cc1cc(C2(c3cc(C)c(O)c(C)c3)C(=O)N(Cc3ccc4ccccc4n3)c3ccccc32)cc(C)c1O [Example 97, 3,3-Bis-(4-hydroxy-3,5-dimethyl-phenyl)-1-quinolin-2-ylmethyl-1,3-dihydro-indol-2-one]
20 | ≤ 0.5 | C#CCN1C(=O)C(c2cc(C)c(O)c(C)c2)(c2cc(C)c(O)c(C)c2)c2ccccc21 [Example 101, 3,3-Bis-(4-hydroxy-3,5-dimethyl-phenyl)-1-prop-2-ynyl-1,3-dihydro-indol-2-one]
21 | ≤ 0.5 | CC(C)=CCN1C(=O)C(c2cc(C)c(O)c(C)c2)(c2cc(C)c(O)c(C)c2)c2ccccc21 [Example 102, 3,3-Bis-(4-hydroxy-3,5-dimethyl-phenyl)-1-(3-methyl-but-2-enyl)-1,3-dihydro-indol-2-one]
22 | ≤ 0.5 | C=C(C)CN1C(=O)C(c2cc(C)c(O)c(C)c2)(c2cc(C)c(O)c(C)c2)c2ccccc21 [Example 106, 3,3-Bis-(4-hydroxy-3,5-dimethyl-phenyl)-1-(2-methyl-allyl)-1,3-dihydro-indol-2-one]
23 | ≤ 0.5 | COC(=O)c1ccc(CN2C(=O)C(c3cc(C)c(O)c(C)c3)(c3cc(C)c(O)c(C)c3)c3ccccc32)o1 [Example 108, 5-[3,3-Bis-(4-hydroxy-3,5-dimethyl-phenyl)-2-oxo-2,3-dihydro-indol-1-ylmethyl]-furan-2-carboxylic acid methyl ester]
24 | ≤ 0.5 | CCOC(=O)CN1C(=O)C(c2cc(C)c(O)c(C)c2)(c2cc(C)c(O)c(C)c2)c2ccccc21 [Example 109, [3,3-Bis-(4-hydroxy-3,5-dimethyl-phenyl)-2-oxo-2,3-dihydro-indol-1-yl]-acetic acid ethyl ester]
25 | ≤ 0.5 | Cc1cc(C2(c3cc(C)c(O)c(C)c3)C(=O)N(CCC3CCCCC3)c3ccccc32)cc(C)c1O [Example 110, 1-(2-Cyclohexyl-ethyl)-3,3-bis-(4-hydroxy-3,5-dimethyl-phenyl)-1,3-dihydro-indol-2-one]
